Reference: ChEMBL document CHEMBL3885861, “Open TG-GATES”

Species on record: Rattus norvegicus
Experiment: Open TG-GATES - Regimen: Single
Assay type: toxicity, organism-based, Sprague-Dawley
Parameters: regimen Single, gender Male, age 6 weeks
Conditions: in vivo, po, 100 mg/kg, route gavage, dose level Low; for APTT / Bas / Eos / Fbg / Hb / Ht / Lym / MCV / Mono / Neu / PT / Plat / RBC / Ret / WBC / MCH / MCHC: tissue Blood; for KIDNEY_L / KIDNEY_R / KIDNEY_TOTAL: tissue Kidney; for LIVER: tissue Liver; for ALP / ALT / AST / BUN / CRE / Ca / DBIL / GLC / IP / K / LDH / Na / PL / RALB / TBIL / TC / TG / TP / gamma-GTP: tissue Plasma

`O=C(O)c1cn(C2CC2)c2cc(N3CCNCC3)c(F)cc2c1=O` [CIPROFLOXACIN] gave a TERMINAL_BW (3 h) of 185.5 g, an APTT (3 h) of 16.8 s and a Bas (3 h) of 0%. For the same compound, the Eos (3 h) was 0.8%, the Fbg (3 h) was 213 mg/dL and the Hb (3 h) was 12.9 g/dL. For the same compound, the Ht (3 h) was 38.6%, the Lym (3 h) was 78.4% and the MCV (3 h) was 67.5 fL. For the same compound, the Mono (3 h) was 8.4%, the Neu (3 h) was 12.8% and the PT (3 h) was 12.3 s. It also gave a Plat (3 h) of 104.3 x10_4/uL, an RBC (3 h) of 572.8 x10_4/ul and a Ret (3 h) of 10.8%. It also gave a WBC (3 h) of 106 x10_2/uL, a KIDNEY_L (3 h) of 0.8 g and a KIDNEY_R (3 h) of 0.9 g. It also gave a KIDNEY_TOTAL (3 h) of 1.7 g, an LIVER (3 h) of 9.1 g and an ALP (3 h) of 856.2 IU/L. The ALT (3 h) was 35 IU/L, the AST (3 h) was 68.6 IU/L and the BUN (3 h) was 12.4 mg/dL. The CRE (3 h) was 0.5 mg/dL, the Ca (3 h) was 11.2 mg/dL and the DBIL (3 h) was 0.018 mg/dL. The GLC (3 h) was 192 mg/dL, the IP (3 h) was 9.8 mg/dL and the K (3 h) was 4.9 meq/L. It also gave an LDH (3 h) of 81.4 IU/L, a Na (3 h) of 139 meq/L and a PL (3 h) of 144.4 mg/dL. It also gave an RALB (3 h) of 3.7 g/dL, a TBIL (3 h) of 0.4 mg/dL and a TC (3 h) of 84.6 mg/dL. For the same compound, the TG (3 h) was 45.6 mg/dL, the TP (3 h) was 5.5 g/dL and the gamma-GTP (3 h) was 1.4 IU/L. It also gave a TERMINAL_BW (6 h) of 179.2 g, an APTT (6 h) of 17.2 s and a Bas (6 h) of 0%. For the same compound, the Eos (6 h) was 0.4%, the Fbg (6 h) was 216.6 mg/dL and the Hb (6 h) was 13 g/dL. It also gave a Lym (6 h) of 73%, an MCH (6 h) of 21.4 pg and an MCHC (6 h) of 33.2%. For the same compound, the MCV (6 h) was 64.5 fL, the Mono (6 h) was 6% and the PT (6 h) was 12.4 s. The Plat (6 h) was 102.1 x10_4/uL, the RBC (6 h) was 608.4 x10_4/ul and the Ret (6 h) was 10.5%. It also gave a WBC (6 h) of 119.3 x10_2/uL, a KIDNEY_L (6 h) of 0.9 g and a KIDNEY_R (6 h) of 0.9 g. It also gave a KIDNEY_TOTAL (6 h) of 1.7 g, an LIVER (6 h) of 8.1 g and an ALP (6 h) of 779.4 IU/L. The ALT (6 h) was 33.6 IU/L, the AST (6 h) was 70.4 IU/L and the BUN (6 h) was 10.8 mg/dL. The CRE (6 h) was 0.5 mg/dL, the Ca (6 h) was 11.4 mg/dL and the DBIL (6 h) was 0.05 mg/dL. For the same compound, the GLC (6 h) was 182.4 mg/dL, the IP (6 h) was 10.3 mg/dL and the K (6 h) was 5.4 meq/L. The LDH (6 h) was 98 IU/L, the Na (6 h) was 138.8 meq/L and the PL (6 h) was 128.2 mg/dL. The RALB (6 h) was 3.9 g/dL, the TBIL (6 h) was 0.3 mg/dL and the TC (6 h) was 71.4 mg/dL. It also gave a TG (6 h) of 39.8 mg/dL, a TP (6 h) of 5.6 g/dL and a gamma-GTP (6 h) of 1 IU/L. It also gave a TERMINAL_BW (9 h) of 174.2 g, an APTT (9 h) of 16.2 s and a Bas (9 h) of 0%. The Eos (9 h) was 1%, the Fbg (9 h) was 215 mg/dL and the Hb (9 h) was 13.5 g/dL. It also gave a Lym (9 h) of 77.2%, an MCV (9 h) of 67.9 fL and a Mono (9 h) of 5.2%. The Neu (9 h) was 17%, the PT (9 h) was 11.5 s and the Plat (9 h) was 100.5 x10_4/uL. For the same compound, the RBC (9 h) was 605.8 x10_4/ul, the Ret (9 h) was 9.9% and the WBC (9 h) was 77 x10_2/uL. The KIDNEY_L (9 h) was 0.9 g, the KIDNEY_R (9 h) was 0.9 g and the KIDNEY_TOTAL (9 h) was 1.8 g. For the same compound, the LIVER (9 h) was 7.3 g, the ALP (9 h) was 813.2 IU/L and the ALT (9 h) was 33.6 IU/L. The AST (9 h) was 68.8 IU/L, the BUN (9 h) was 11 mg/dL and the CRE (9 h) was 0.5 mg/dL. It also gave a Ca (9 h) of 10.9 mg/dL, a DBIL (9 h) of 0.066 mg/dL and a GLC (9 h) of 190 mg/dL. The IP (9 h) was 11.5 mg/dL, the K (9 h) was 4.9 meq/L and the LDH (9 h) was 94.2 IU/L. For the same compound, the Na (9 h) was 139.6 meq/L, the PL (9 h) was 142.4 mg/dL and the RALB (9 h) was 3.8 g/dL. For the same compound, the TBIL (9 h) was 0.2 mg/dL, the TC (9 h) was 88.4 mg/dL and the TP (9 h) was 5.6 g/dL. For the same compound, the gamma-GTP (9 h) was 1.4 IU/L, the TERMINAL_BW (24 h) was 191.7 g and the Bas (24 h) was 0%. The Eos (24 h) was 1%, the Fbg (24 h) was 218 mg/dL and the Hb (24 h) was 13.5 g/dL. For the same compound, the Ht (24 h) was 40.5%, the Lym (24 h) was 77% and the MCH (24 h) was 22.1 pg. It also gave an MCHC (24 h) of 33.4%, an MCV (24 h) of 66.3 fL and a Mono (24 h) of 7%. The Neu (24 h) was 15%, the Plat (24 h) was 105.4 x10_4/uL and the RBC (24 h) was 610.4 x10_4/ul. The Ret (24 h) was 9.2%, the WBC (24 h) was 102.8 x10_2/uL and the KIDNEY_L (24 h) was 0.9 g. For the same compound, the KIDNEY_R (24 h) was 0.9 g, the KIDNEY_TOTAL (24 h) was 1.7 g and the LIVER (24 h) was 8 g. The ALP (24 h) was 953.6 IU/L, the ALT (24 h) was 40.4 IU/L and the AST (24 h) was 74.6 IU/L. For the same compound, the BUN (24 h) was 17.2 mg/dL, the CRE (24 h) was 0.5 mg/dL and the Ca (24 h) was 11.2 mg/dL. It also gave a DBIL (24 h) of 0.058 mg/dL, a GLC (24 h) of 191.6 mg/dL and an IP (24 h) of 9.2 mg/dL. It also gave a K (24 h) of 4.7 meq/L, a Na (24 h) of 139.4 meq/L and a PL (24 h) of 161.4 mg/dL. It also gave an RALB (24 h) of 3.8 g/dL, a TBIL (24 h) of 0.3 mg/dL and a TC (24 h) of 100 mg/dL. It also gave a TP (24 h) of 5.9 g/dL.
